Results taken from patent publication US9771370B2, “Compounds for the inhibition of indoleamine-2,3-dioxygenase” (Merck Patent GmbH, priority 2014, dated 2017).

Target: Recombinant human IDO (Homo sapiens, UniProt P14902)
Assay: Bridge-IT tryptophan fluorescence assay of human IDO-1 inhibition
Type: biochemical
Conditions: recombinant human IDO 7.5 nM, L-tryptophan
Outline: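 One variant ran L-Trp at 100 μM for 90 min at 37 °C. The other pre-incubated compound for 30 min at 25 °C, then ran 50 μM L-Trp for 60 min at 25 °C.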

Chain of Recombinant human IDO (P14902 whole entry): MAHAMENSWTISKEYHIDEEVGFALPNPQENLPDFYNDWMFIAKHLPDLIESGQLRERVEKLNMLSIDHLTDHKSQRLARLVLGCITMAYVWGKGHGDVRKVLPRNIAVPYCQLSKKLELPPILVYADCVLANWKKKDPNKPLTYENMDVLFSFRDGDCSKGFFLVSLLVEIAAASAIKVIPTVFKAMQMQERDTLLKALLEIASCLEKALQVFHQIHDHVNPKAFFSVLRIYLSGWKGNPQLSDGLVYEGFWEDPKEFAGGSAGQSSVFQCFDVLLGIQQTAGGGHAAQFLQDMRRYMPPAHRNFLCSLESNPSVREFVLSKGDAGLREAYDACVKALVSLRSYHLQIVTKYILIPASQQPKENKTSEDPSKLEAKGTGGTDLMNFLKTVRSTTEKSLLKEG

| SMILES | IC50 |
| --- | --- |
| OC1CCC(F)(CCC2c3ccccc3-c3cncn32)CC1 (single isomer, unassigned) [Compound 13a, 4-(2-(5H-imidazo[5,1-a]isoindol-5-yl)ethyl)-4-fluorocyclohexanol] | > 1000 nM |
| OC1CCC(F)(CCC2c3cccc(F)c3-c3cncn32)CC1 (single isomer, unassigned) [Compound 35a, 4-fluoro-4-(2-(9-fluoro-5H-imidazo[5,1-a]isoindol-5-yl)ethyl)cyclohexanol] | > 1000 nM |
| OC(CC1c2ncccc2-c2cncn21)C1CCC(C2(O)CC2)CC1 (single isomer, unassigned) [Compound 117d, 1-[4-[1-hydroxy-2-[4,6,9-triazatricyclo[6.4.0.0^[2,6]]dodeca-1(8),2,4,9,11-pentaen-7-yl]ethyl]cyclohexyl]cyclopropan-1-ol] | > 1000 nM |
| COc1ccc2c(n1)C(CC(N)C1CCCCC1)n1cncc1-2 (single isomer, unassigned) [Compound 118c, 1-cyclohexyl-2-[10-methoxy-4,6,9-triazatricyclo[6.4.0.0^[2,6]]dodeca-1(8),2,4,9,11-pentaen-7-yl]ethan-1-amine] | > 1000 nM |
| COc1ccc2c(n1)C(CC(N)C1CCC(C)(C)CC1)n1cncc1-2 (single isomer, unassigned) [Compound 119d, 1-(4,4-dimethylcyclohexyl)-2-[10-methoxy-4,6,9-triazatricyclo[6.4.0.0^[2,6]]dodeca-1(8),2,4,9,11-pentaen-7-yl]ethan-1-amine] | > 1000 nM |
| FC1(CCC2c3cnccc3-c3cncn32)CCCCC1 (single isomer, unassigned) [Compound 10b, 7-[2-(1-fluorocyclohexyl)ethyl]-4,6,10-triazatricyclo[6.4.0.0^[2,6]]dodeca-1(8),2,4,9,11-pentaene] | > 1000 nM |
| COc1cccc2c1-c1cncn1C2CCC1(F)CCC(O)CC1 (stereo not drawn) [Compound 41a, 4-fluoro-4-(2-(9-methoxy-5H-imidazo[5,1-a]isoindol-5-yl)ethyl)cyclohexanol] | > 1000 nM |
| OCC1CCC(F)(CCC2c3ccccc3-c3cncn32)CC1 (single isomer, unassigned) [Compound 59a, [4-fluoro-4-[2-[5H-imidazo[4,3-a]isoindol-5-yl]ethyl]cyclohexyl]methanol] | > 1000 nM |
| OC(CC1c2ncncc2-c2cncn21)C1CCCCC1 (mixture of isomers) [Compound 67d, 1-cyclohexyl-2-[4,6,9,11-tetraazatricyclo[6.4.0.0^[2,6]]dodeca-1(8),2,4,9,11-pentaen-7-yl]ethan-1-ol] | > 1000 nM |
| OC(CC1CCCCC1)CC1c2ncccc2-c2cncn21 (single isomer, unassigned) [Compound 62c, 1-cyclohexyl-3-[4,6,9-triazatricyclo[6.4.0.0^[2,6]]dodeca-1(8),2,4,9,11-pentaen-7-yl]propan-2-ol] | > 1000 nM |
| O=C(C1CCC(F)(CCC2c3c(F)cccc3-c3cncn32)CC1)N1CCCCC1 (mixture of isomers) [Compound 110b] | 100 to 1000 nM |
| OC(CC1c2nc(Cl)ccc2-c2cncn21)C1CCC(F)(F)CC1 (single isomer, unassigned) [Compound 52c, 2-[10-chloro-4,6,9-triazatricyclo[6.4.0.0^[2,6]]dodeca-1(8),2,4,9,11-pentaen-7-yl]-1-(4,4-difluorocyclohexyl)ethan-1-ol] | > 1000 nM |
| OC(CC1c2nc(Cl)ccc2-c2cncn21)C1CCC(F)(F)CC1 (stereo not drawn) [Compound 52b, 2-[10-chloro-4,6,9-triazatricyclo[6.4.0.0^[2,6]]dodeca-1(8),2,4,9,11-pentaen-7-yl]-1-(4,4-difluorocyclohexyl)ethan-1-ol] | 100 to 1000 nM |
| NC(=O)C1CCC(F)(CCC2c3ccccc3-c3cncn32)CC1 (single isomer, unassigned) [Compound 79b, 4-fluoro-4-[2-[5H-imidazo[4,3-a]isoindol-5-yl]ethyl]cyclohexane-1-carboxamide] | > 1000 nM |
| COc1ccc(F)c2c1-c1cncn1C2CCC1(F)CCCCC1 (single isomer, unassigned) [Compound 45b, 6-fluoro-5-(2-(1-fluorocyclohexyl)ethyl)-9-methoxy-5H-imidazo[5,1-a]isoindole] | > 1000 nM |
| FC1(CCC2c3ncccc3-c3cncn32)CCCCC1 (single isomer, unassigned) [Compound 18a, 7-[2-(1-fluorocyclohexyl)ethyl]-4,6,9-triazatricyclo[6.4.0.0^[2,6]]dodeca-1(8),2,4,9,11-pentaene] | 100 to 1000 nM |
| CC(C)(C)C(=O)N1CCC(C(O)CC2c3ncccc3-c3cncn32)CC1 (single isomer, unassigned) [Compound 88c, 1-[4-[1-hydroxy-2-[4,6,9-triazatricyclo[6.4.0.0^[2,6]]dodeca-1(8),2,4,9,11-pentaen-7-yl]ethyl]piperidin-1-yl]-2,2-dimethylpropan-1-one] | > 1000 nM |
| OC1CCC(F)(CCC2c3ncccc3-c3cncn32)CC1 (single isomer, unassigned) [Compound 8a, 4-fluoro-4-(2-{4,6,9-triazatricyclo[6.4.0.0^[2,6]]dodeca-1(8),2,4,9,11-pentaen-7-yl}ethyl)cyclohexan-1-ol] | 100 to 1000 nM |
| OC(CC1c2c(F)cncc2-c2cncn21)C1CCCCC1 (stereo not drawn) [Compound 3a, 1-cyclohexyl-2-[9-fluoro-4,6,11-triazatricyclo[6.4.0.0^[2,6]]dodeca-1(8),2,4,9,11-pentaen-7-yl]ethan-1-ol] | > 1000 nM |
| OC(CC1c2cc(F)ncc2-c2cncn21)C1CCCCC1 (single isomer, unassigned) [Compound 24b, 1-cyclohexyl-2-[10-fluoro-4,6,11-triazatricyclo[6.4.0.0^[2,6]]dodeca-1(8),2,4,9,11-pentaen-7-yl]ethan-1-ol] | > 1000 nM |
| Fc1cccc2c1-c1cncn1C2CCC1(F)CCCCC1 (single isomer, unassigned) [Compound 36b, 9-fluoro-5-(2-(1-fluorocyclohexyl)ethyl)-5H-imidazo[5,1-a]isoindole] | > 1000 nM |
| OC1CCC(F)(CCC2c3cc(F)ncc3-c3cncn32)CC1 (single isomer, unassigned) [Compound 58c, 4-fluoro-4-[2-[10-fluoro-4,6,11-triazatricyclo[6.4.0.0^[2,6]]dodeca-1(8),2,4,9,11-pentaen-7-yl]ethyl]cyclohexan-1-ol] | > 1000 nM |
| Fc1cccc2c1C(CCC1(F)CCOCC1)n1cncc1-2 (single isomer, unassigned) [Compound 95a, 6-fluoro-5-[2-(4-fluorooxan-4-yl)ethyl]-5H-imidazo[4,3-a]isoindole] | > 1000 nM |
| CC(C)(O)C1CCC(F)(CCC2c3c(Cl)cccc3-c3cncn32)CC1 (stereo not drawn) [Compound 107b, 2-[4-(2-[6-chloro-5H-imidazo[4,3-a]isoindol-5-yl]ethyl)-4-fluorocyclohexyl]propan-2-ol] | 100 to 1000 nM |
| OC(CC1c2ncccc2-c2cncn21)C1CCCCC1 (single isomer, unassigned) [Compound 5b, 1-cyclohexyl-2-[4,6,9-triazatricyclo[6.4.0.0^[2,6]]dodeca-1(8),2,4,9,11-pentaen-7-yl]ethan-1-ol] | > 1000 nM |

The remaining lines, values ahead:

| IC50 | SMILES |
| --- | --- |
| 100 to 1000 nM | FC1(F)CCC(F)(CCC2c3c(Cl)cccc3-c3cncn32)CC1 (single isomer, unassigned) [Compound 72b, 6-chloro-5-[2-(1,4,4-trifluorocyclohexyl)ethyl]-5H-imidazo[4,3-a]isoindole] |
| 100 to 1000 nM | OC(CC1c2ncccc2-c2cncn21)C1CCC2(CC1)CC2 (single isomer, unassigned) [Compound 29a, 1-[spiro[2.5]octan-6-yl]-2-[4,6,9-triazatricyclo[6.4.0.0^[2,6]]dodeca-1(8),2,4,9,11-pentaen-7-yl]ethan-1-ol] |
| < 100 nM | Fc1cccc2c1C(CCC1(F)CCCCC1)n1cncc1-2 (single isomer, unassigned) [Compound 19b, 6-fluoro-5-(2-(1-fluorocyclohexyl)ethyl)-5H-imidazo[5,1-a]isoindole] |
| 100 to 1000 nM | OC(CC1c2nc(OC3CC3)ccc2-c2cncn21)C1CCCCC1 (single isomer, unassigned) [Compound 68a, 1-cyclohexyl-2-[10-cyclopropoxy-4,6,9-triazatricyclo[6.4.0.0^[2,6]]dodeca-1(8),2,4,9,11-pentaen-7-yl]ethan-1-ol] |
| < 100 nM | OC1(C2CCC(F)(CCC3c4c(F)cccc4-c4cncn43)CC2)CC1 (mixture of isomers) [Compound 85a, 1-[4-fluoro-4-(2-[6-fluoro-5H-imidazo[4,3-a]isoindol-5-yl]ethyl)cyclohexyl]cyclopropan-1-ol] |
| < 100 nM | OC1CCC(F)(CCC2c3c(Cl)cccc3-c3cncn32)CC1 (single isomer, unassigned) [Compound 71d, 4-[2-[6-chloro-5H-imidazo[4,3-a]isoindol-5-yl]ethyl]-4-fluorocyclohexan-1-ol] |
| 100 to 1000 nM | OC(CC1c2ncccc2-c2cncn21)C1CCC(F)(F)CC1 (single isomer, unassigned) [Compound 22a, 1-(4,4-difluorocyclohexyl)-2-[4,6,9-triazatricyclo[6.4.0.0^[2,6]]dodeca-1(8),2,4,9,11-pentaen-7-yl]ethan-1-ol] |
| 100 to 1000 nM | OC(CC1c2nc(Cl)ccc2-c2cncn21)C1CCC(F)(F)CC1 (single isomer, unassigned) [Compound 52a, 2-[10-chloro-4,6,9-triazatricyclo[6.4.0.0^[2,6]]dodeca-1(8),2,4,9,11-pentaen-7-yl]-1-(4,4-difluorocyclohexyl)ethan-1-ol] |
| 100 to 1000 nM | OC1CCC(F)(CCC2c3cccc(F)c3-c3cncn32)CC1 (single isomer, unassigned) [Compound 35b, 4-fluoro-4-(2-(9-fluoro-5H-imidazo[5,1-a]isoindol-5-yl)ethyl)cyclohexanol] |
| < 100 nM | OC1CCC(F)(CCC2c3ccccc3-c3cncn32)CC1 (single isomer, unassigned) [Compound 13b, 4-(2-(5H-imidazo[5,1-a]isoindol-5-yl)ethyl)-4-fluorocyclohexanol] |
| < 100 nM | O[C@H]1CC[C@](F)(CC[C@H]2c3ccccc3-c3cncn32)CC1 [Compound 14b, (1S,4s)-4-(2-((S)-5H-imidazo[5,1-a]isoindol-5-yl)ethyl)-4-fluorocyclohexan-1-ol] |
